# Assay results reported in publication PMC8037182, “Solvothermal Synthesis of Multiple Dihydropyrimidinones at a Time as Inhibitors of Eg5” (Molecules, 2021).
# Key:
# T24 cell line = experiment: Cytotoxicity MTS assay, T24 cell line; type: cell-based; conditions: for OD490 Mean / OD490 Well 1 / OD490 Well 2 / OD490 Well 3: T24 cell line, first assay;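 on OD490 Mean: blank control wells received 0.025% DMSO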;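 on OD490 Well 1: blank control wells received 0.025% DMSO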;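 on OD490 Well 2: blank control wells received 0.025% DMSO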;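 on OD490 Well 3: blank control wells received 0.025% DMSO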
# Procedure, shortened: (§1)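 Cells were seeded at 1000 per well, allowed 24 h, then exposed to compounds at final concentrations of 0.5 to 100 µM for 24 h, with 0.025% DMSO as blank. MTS reagent was added for 2 h at 37 °C and absorbance read at 490 nm. IC50 came from non-linear regression of viability against concentration.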
# Caco-2 cell line = experiment: Cytotoxicity MTS assay, Caco-2 cell line; type: cell-based; conditions: for OD490 Mean / OD490 Well 1 / OD490 Well 2 / OD490 Well 3: Caco-2 cell line
# Procedure, shortened: as §1
compound,measurement,setting,value
CCOC(=O)c1c(C2NC(=O)NC(C)=C2C(=O)Nc2ccccc2)[nH]c(C(=O)OC)c1C (centres unmarked) [D10],IC50,"T24 cell line; MTS assay, 24 h exposure",> 150 µM
same,OD490 Mean,T24 cell line; 0.5μM,1.3759
same,OD490 Well 1,T24 cell line; 0.5μM,1.3871
same,OD490 Well 2,T24 cell line; 0.5μM,1.3651
same,OD490 Well 3,T24 cell line; 0.5μM,1.3756
same,OD490 Mean,T24 cell line; 1μM,1.3764
same,OD490 Well 1,T24 cell line; 1μM,1.2835
same,OD490 Well 2,T24 cell line; 1μM,1.4515
same,OD490 Well 3,T24 cell line; 1μM,1.3943
same,OD490 Mean,T24 cell line; 10μM,1.4610
same,OD490 Well 1,T24 cell line; 10μM,1.3272
same,OD490 Well 2,T24 cell line; 10μM,1.6117
same,OD490 Well 3,T24 cell line; 10μM,1.4442
same,OD490 Mean,T24 cell line; 25μM,1.4209
same,OD490 Well 1,T24 cell line; 25μM,1.3594
same,OD490 Well 2,T24 cell line; 25μM,1.6346
same,OD490 Well 3,T24 cell line; 25μM,1.2686
same,OD490 Mean,T24 cell line; 50μM,1.2169
same,OD490 Well 1,T24 cell line; 50μM,1.1849
same,OD490 Well 2,T24 cell line; 50μM,1.3216
same,OD490 Well 3,T24 cell line; 50μM,1.1441
same,OD490 Mean,T24 cell line; 100μM,1.1356
same,OD490 Well 1,T24 cell line; 100μM,1.2013
same,OD490 Well 2,T24 cell line; 100μM,1.0672
same,OD490 Well 3,T24 cell line; 100μM,1.1383
same,OD490 Mean,"Caco-2 cell line; 0.5μM, first assay",0.4742
same,OD490 Well 1,"Caco-2 cell line; 0.5μM, first assay",0.4527
same,OD490 Well 2,"Caco-2 cell line; 0.5μM, first assay",0.4966
same,OD490 Well 3,"Caco-2 cell line; 0.5μM, first assay",0.4734
same,OD490 Mean,"Caco-2 cell line; 0.5μM, second assay",0.5530
same,OD490 Well 1,"Caco-2 cell line; 0.5μM, second assay",0.531
same,OD490 Well 2,"Caco-2 cell line; 0.5μM, second assay",0.6234
same,OD490 Well 3,"Caco-2 cell line; 0.5μM, second assay",0.5045
same,OD490 Mean,"Caco-2 cell line; 0.5μM, third assay",0.6289
same,OD490 Well 1,"Caco-2 cell line; 0.5μM, third assay",0.6132
same,OD490 Well 2,"Caco-2 cell line; 0.5μM, third assay",0.6414
same,OD490 Well 3,"Caco-2 cell line; 0.5μM, third assay",0.6321
same,OD490 Mean,"Caco-2 cell line; 1μM, first assay",0.5016
same,OD490 Well 1,"Caco-2 cell line; 1μM, first assay",0.5182
same,OD490 Well 2,"Caco-2 cell line; 1μM, first assay",0.4910
same,OD490 Well 3,"Caco-2 cell line; 1μM, first assay",0.4957
same,OD490 Mean,"Caco-2 cell line; 1μM, second assay",0.6121
same,OD490 Well 1,"Caco-2 cell line; 1μM, second assay",0.5315
same,OD490 Well 2,"Caco-2 cell line; 1μM, second assay",0.6788
same,OD490 Well 3,"Caco-2 cell line; 1μM, second assay",0.626
same,OD490 Mean,"Caco-2 cell line; 1μM, third assay",0.6367
same,OD490 Well 1,"Caco-2 cell line; 1μM, third assay",0.6031
same,OD490 Well 2,"Caco-2 cell line; 1μM, third assay",0.6621
same,OD490 Well 3,"Caco-2 cell line; 1μM, third assay",0.6449
same,OD490 Mean,"Caco-2 cell line; 10μM, first assay",0.4933
same,OD490 Well 1,"Caco-2 cell line; 10μM, first assay",0.4499
same,OD490 Well 2,"Caco-2 cell line; 10μM, first assay",0.5248
same,OD490 Well 3,"Caco-2 cell line; 10μM, first assay",0.5052
same,OD490 Mean,"Caco-2 cell line; 10μM, second assay",0.5658
same,OD490 Well 1,"Caco-2 cell line; 10μM, second assay",0.6
same,OD490 Well 2,"Caco-2 cell line; 10μM, second assay",0.624
same,OD490 Well 3,"Caco-2 cell line; 10μM, second assay",0.4735
same,OD490 Mean,"Caco-2 cell line; 10μM, third assay",0.6081
same,OD490 Well 1,"Caco-2 cell line; 10μM, third assay",0.6012
same,OD490 Well 2,"Caco-2 cell line; 10μM, third assay",0.6321
same,OD490 Well 3,"Caco-2 cell line; 10μM, third assay",0.5911
same,OD490 Mean,"Caco-2 cell line; 25μM, first assay",0.4730
same,OD490 Well 1,"Caco-2 cell line; 25μM, first assay",0.3491
same,OD490 Well 2,"Caco-2 cell line; 25μM, first assay",0.5643
same,OD490 Well 3,"Caco-2 cell line; 25μM, first assay",0.5057
same,OD490 Mean,"Caco-2 cell line; 25μM, second assay",0.5406
same,OD490 Well 1,"Caco-2 cell line; 25μM, second assay",0.5132
same,OD490 Well 2,"Caco-2 cell line; 25μM, second assay",0.5889
same,OD490 Well 3,"Caco-2 cell line; 25μM, second assay",0.5197
same,OD490 Mean,"Caco-2 cell line; 25μM, third assay",0.5321
same,OD490 Well 1,"Caco-2 cell line; 25μM, third assay",0.5365
same,OD490 Well 2,"Caco-2 cell line; 25μM, third assay",0.4987
same,OD490 Well 3,"Caco-2 cell line; 25μM, third assay",0.5612
same,OD490 Mean,"Caco-2 cell line; 50μM, first assay",0.4403
same,OD490 Well 1,"Caco-2 cell line; 50μM, first assay",0.3579
same,OD490 Well 2,"Caco-2 cell line; 50μM, first assay",0.5436
same,OD490 Well 3,"Caco-2 cell line; 50μM, first assay",0.4193
same,OD490 Mean,"Caco-2 cell line; 50μM, second assay",0.4763
same,OD490 Well 1,"Caco-2 cell line; 50μM, second assay",0.4113
same,OD490 Well 2,"Caco-2 cell line; 50μM, second assay",0.5208
same,OD490 Well 3,"Caco-2 cell line; 50μM, second assay",0.4969
same,OD490 Mean,"Caco-2 cell line; 50μM, third assay",0.4757
same,OD490 Well 1,"Caco-2 cell line; 50μM, third assay",0.4698
same,OD490 Well 2,"Caco-2 cell line; 50μM, third assay",0.4875
same,OD490 Well 3,"Caco-2 cell line; 50μM, third assay",0.4698
same,OD490 Mean,"Caco-2 cell line; 100μM, first assay",0.4342
same,OD490 Well 1,"Caco-2 cell line; 100μM, first assay",0.3369
same,OD490 Well 2,"Caco-2 cell line; 100μM, first assay",0.4685
same,OD490 Well 3,"Caco-2 cell line; 100μM, first assay",0.4971
same,OD490 Mean,"Caco-2 cell line; 100μM, second assay",0.4596
same,OD490 Well 1,"Caco-2 cell line; 100μM, second assay",0.4737
same,OD490 Well 2,"Caco-2 cell line; 100μM, second assay",0.4587
same,OD490 Well 3,"Caco-2 cell line; 100μM, second assay",0.4463
same,OD490 Mean,"Caco-2 cell line; 100μM, third assay",0.4349
same,OD490 Well 1,"Caco-2 cell line; 100μM, third assay",0.4356
same,OD490 Well 2,"Caco-2 cell line; 100μM, third assay",0.4169
same,OD490 Well 3,"Caco-2 cell line; 100μM, third assay",0.4521
same,IC50,"Caco-2 cell line; MTS assay, 24 h exposure",108 µM
